pIC50: −log10 of the molar value.
Tests used:
[1] = target: T1, c-Met (baculovirus expressed human c-Met kinase domain P948-S1343) (Homo sapiens, UniProt P08581); experiment: c-Met Luciferase-Coupled Chemiluminescent Kinase assay (LCCA); format: biochemical;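 further: kinase activity read as percent ATP left after reaction, by luciferase-luciferin chemiluminescence, with 1 µM ATP and 1 µM poly-EY substrate, 2 h at ambient temperature, 10-point dose-response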
T1 construct: human c-Met kinase domain P948-S1343; host or cells: baculovirus expression
T1 sequence (P08581 1011-1343 limits assumed): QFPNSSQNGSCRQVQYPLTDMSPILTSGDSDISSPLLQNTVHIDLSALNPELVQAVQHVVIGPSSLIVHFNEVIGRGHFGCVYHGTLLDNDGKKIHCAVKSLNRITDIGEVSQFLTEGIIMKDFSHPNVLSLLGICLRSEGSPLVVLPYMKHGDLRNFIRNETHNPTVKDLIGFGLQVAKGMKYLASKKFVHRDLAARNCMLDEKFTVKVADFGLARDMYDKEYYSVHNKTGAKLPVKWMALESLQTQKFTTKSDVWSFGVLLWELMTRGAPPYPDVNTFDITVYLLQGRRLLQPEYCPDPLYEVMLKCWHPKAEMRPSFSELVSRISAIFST

[2] = target: T2, KDR (baculovirus expressed human KDR kinase domain D807-V1356) (Homo sapiens, UniProt P35968); experiment: biochemical;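 further: Luciferase-coupled chemiluminescent kinase assay, activity read as percent ATP left after 4 h reaction at ambient temperature, ATP near KM, 10-point dose-response in 384-well plates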
T2 construct: human KDR kinase domain D807-V1356; host or cells: baculovirus expression
T2 sequence (P35968 807-1356): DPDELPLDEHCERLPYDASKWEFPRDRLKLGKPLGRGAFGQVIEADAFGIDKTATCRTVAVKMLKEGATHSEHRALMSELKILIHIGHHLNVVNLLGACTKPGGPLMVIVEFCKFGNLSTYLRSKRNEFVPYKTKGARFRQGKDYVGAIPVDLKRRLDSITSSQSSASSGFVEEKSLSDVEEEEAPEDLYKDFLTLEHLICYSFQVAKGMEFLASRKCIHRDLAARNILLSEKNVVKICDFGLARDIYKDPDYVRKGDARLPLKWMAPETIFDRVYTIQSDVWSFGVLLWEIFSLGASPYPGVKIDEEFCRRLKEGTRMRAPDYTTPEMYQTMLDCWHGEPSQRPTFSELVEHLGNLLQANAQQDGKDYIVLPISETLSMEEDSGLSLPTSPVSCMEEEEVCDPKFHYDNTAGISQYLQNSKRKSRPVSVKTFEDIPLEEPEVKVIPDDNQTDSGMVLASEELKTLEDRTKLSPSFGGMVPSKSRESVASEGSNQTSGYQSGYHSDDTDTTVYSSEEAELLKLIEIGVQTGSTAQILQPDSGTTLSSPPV

[3] = target: T3, Flt-4 (baculovirus expressed human Flt-4 kinase domain D725-R1298) (Homo sapiens, UniProt P35916); experiment: flt-4 Alphascreen Tyrosine Kinase assay; format: biochemical; details: read-out: flt4 IC50;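 further: AlphaScreen chemiluminescence read-out of biotinylated poly(Glu,Tyr) 4:1 phosphorylation via streptavidin donor and PY100 anti-phosphotyrosine acceptor beads, ATP near KM, 1 hr kinase reaction, 10-point dose-response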
T3 construct: human Flt-4 kinase domain D725-R1298; host or cells: baculovirus expression
T3 sequence (P35916 725-1298 isoform P35916-1): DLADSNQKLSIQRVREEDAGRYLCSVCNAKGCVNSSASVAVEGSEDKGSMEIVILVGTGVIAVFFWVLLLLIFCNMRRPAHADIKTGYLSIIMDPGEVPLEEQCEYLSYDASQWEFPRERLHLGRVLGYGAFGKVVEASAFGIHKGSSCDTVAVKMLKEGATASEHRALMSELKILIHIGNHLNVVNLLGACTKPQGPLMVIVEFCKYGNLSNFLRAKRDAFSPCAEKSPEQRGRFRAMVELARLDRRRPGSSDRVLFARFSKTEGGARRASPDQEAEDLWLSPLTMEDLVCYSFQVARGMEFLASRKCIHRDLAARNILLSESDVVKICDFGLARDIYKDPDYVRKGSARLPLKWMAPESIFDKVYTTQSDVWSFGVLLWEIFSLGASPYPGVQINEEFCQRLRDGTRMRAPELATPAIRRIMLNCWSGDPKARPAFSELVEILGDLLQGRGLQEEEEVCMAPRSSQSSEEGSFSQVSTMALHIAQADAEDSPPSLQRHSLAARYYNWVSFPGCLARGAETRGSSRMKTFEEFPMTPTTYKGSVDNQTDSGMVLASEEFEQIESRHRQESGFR

[4] = target: T4, Flt-3 (baculovirus expressed human Flt-3 kinase domain R571-S993) (Homo sapiens, UniProt P36888); experiment: biochemical; details: read-out: flt3 IC50;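 further: Luciferase-coupled chemiluminescent kinase assay, activity read as percent ATP left after a 3 h reaction at room temperature, ATP near KM, 10-point dose-response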
T4 construct: human Flt-3 kinase domain R571-S993; host or cells: baculovirus expression
T4 sequence (P36888 571-993): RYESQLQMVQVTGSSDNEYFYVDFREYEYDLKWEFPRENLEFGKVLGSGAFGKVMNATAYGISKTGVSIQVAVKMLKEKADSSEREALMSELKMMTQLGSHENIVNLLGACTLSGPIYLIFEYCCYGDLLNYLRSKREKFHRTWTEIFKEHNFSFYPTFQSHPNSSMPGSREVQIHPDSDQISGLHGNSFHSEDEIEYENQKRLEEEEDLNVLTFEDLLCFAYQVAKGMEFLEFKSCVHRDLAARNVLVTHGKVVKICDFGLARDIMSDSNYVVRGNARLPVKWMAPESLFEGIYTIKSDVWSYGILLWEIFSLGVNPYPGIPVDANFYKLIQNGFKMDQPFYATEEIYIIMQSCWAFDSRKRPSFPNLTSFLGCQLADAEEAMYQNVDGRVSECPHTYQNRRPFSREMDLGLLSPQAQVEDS

c-Kit kinase = c-Kit kinase (Homo sapiens, UniProt P10721); experiment: c-Kit AlphaScreen kinase assay; format: biochemical;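 further: c-Kit kinase phosphorylating biotinylated poly(Glu,Tyr), ATP near its KM, 1 h reaction at ambient temperature, AlphaScreen chemiluminescence with streptavidin donor and anti-phosphotyrosine acceptor beads, 10-point inhibitor titration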
Chain of c-Kit kinase (P10721 26-976): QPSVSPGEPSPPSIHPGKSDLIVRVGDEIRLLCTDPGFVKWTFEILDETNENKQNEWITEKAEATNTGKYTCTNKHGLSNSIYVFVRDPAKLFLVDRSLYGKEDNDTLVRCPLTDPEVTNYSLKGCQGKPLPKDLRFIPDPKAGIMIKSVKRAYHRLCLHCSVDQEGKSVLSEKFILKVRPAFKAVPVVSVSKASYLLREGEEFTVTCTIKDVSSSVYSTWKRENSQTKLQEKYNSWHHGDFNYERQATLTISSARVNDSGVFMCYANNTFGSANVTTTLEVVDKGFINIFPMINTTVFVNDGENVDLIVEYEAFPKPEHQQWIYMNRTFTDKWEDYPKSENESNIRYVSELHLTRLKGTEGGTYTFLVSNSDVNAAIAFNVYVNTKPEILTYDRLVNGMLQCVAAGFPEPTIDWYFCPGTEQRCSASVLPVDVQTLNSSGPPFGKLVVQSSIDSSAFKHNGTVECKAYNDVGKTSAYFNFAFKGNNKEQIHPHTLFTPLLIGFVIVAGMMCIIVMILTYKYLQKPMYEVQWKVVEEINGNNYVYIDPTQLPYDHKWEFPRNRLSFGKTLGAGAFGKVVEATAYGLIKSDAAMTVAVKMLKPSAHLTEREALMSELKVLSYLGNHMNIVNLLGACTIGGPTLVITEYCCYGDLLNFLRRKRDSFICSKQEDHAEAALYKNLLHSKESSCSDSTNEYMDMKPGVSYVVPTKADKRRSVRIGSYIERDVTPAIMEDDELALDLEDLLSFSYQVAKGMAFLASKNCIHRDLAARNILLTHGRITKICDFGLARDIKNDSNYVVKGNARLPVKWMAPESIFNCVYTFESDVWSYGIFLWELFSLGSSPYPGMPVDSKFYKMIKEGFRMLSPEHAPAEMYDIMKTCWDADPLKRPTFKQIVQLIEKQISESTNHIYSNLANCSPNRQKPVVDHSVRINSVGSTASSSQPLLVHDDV

| pIC50 [1] | pIC50 [2] | pIC50 [3] | pIC50 [4] | pIC50 (c-Kit kinase) | Structure (SMILES) |
| --- | --- | --- | --- | --- | --- |
| > 7.30 | > 7.30 | > 7.30 | 6.30 to 7.30 | > 7.30 | CCN(CC)CCOc1cc2nccc(Oc3ccc(NC(=O)C4(C(=O)Nc5ccc(F)cc5)CCC4)cc3F)c2cc1OC [Example 307, N-(4-{[7-{[2-(diethylamino)ethyl]oxy}-6-(methyloxy)quinolin-4-yl]oxy}-3-fluorophenyl)-N′-(4-fluorophenyl)cyclobutane-1,1-dicarboxamide] |
| > 7.30 | > 7.30 | > 7.30 | > 7.30 | > 7.30 | COc1cc2c(Oc3ccc(NC(=O)C4(C(=O)Nc5ccc(F)cc5)CC4)cc3F)ccnc2cc1OCCCN1CCCCC1 [Example 313, N-[3-fluoro-4-({6-(methyloxy)-7-[(3-piperidin-1-ylpropyl)oxy]quinolin-4-yl}oxy)phenyl]-N′-(4-fluorophenyl)cyclopropane-1,1-dicarboxamide] |
| > 7.30 | > 7.30 | > 7.30 | 6.30 to 7.30 | > 7.30 | COc1cc2c(Oc3ccc(NC(=O)C4(C(=O)Nc5ccc(F)cc5)CCC4)cc3F)ccnc2cc1OCCCN1CCCCC1 [Example 314, N-[3-fluoro-4-({6-(methyloxy)-7-[(3-piperidin-1-ylpropyl)oxy]quinolin-4-yl}oxy)phenyl]-N′-(4-fluorophenyl)cyclobutane-1,1-dicarboxamide] |

Further lines, the molecule ahead of its results:

| Structure (SMILES) | pIC50 [1] | pIC50 [2] | pIC50 [3] | pIC50 [4] | pIC50 (c-Kit kinase) |
| --- | --- | --- | --- | --- | --- |
| CCN(CC)CCOc1cc2nccc(Oc3ccc(NC(=O)C4(C(=O)Nc5ccc(F)cc5)CC4)cc3F)c2cc1OC [Example 304, N-(4-{[7-{[2-(diethylamino)ethyl]oxy}-6-(methyloxy)quinolin-4-yl]oxy}-3-fluorophenyl)-N′-(4-fluorophenyl)cyclopropane-1,1-dicarboxamide] | > 7.30 | > 7.30 | > 7.30 | > 7.30 | > 7.30 |
| COc1cc2nccc(Oc3ccc(NC(=O)C4(C(=O)Nc5ccc(F)cc5)CC4)c(C)n3)c2cc1OC [Example 306, N-(6-{[6,7-bis(methyloxy)quinolin-4-yl]oxy}-2-methylpyridin-3-yl)-N′-(4-fluorophenyl)cyclopropane-1,1-dicarboxamide] | > 7.30 | 6.30 to 7.30 | 6.30 to 7.30 | 5.30 to 6.30 | 6.30 to 7.30 |
| O=C(Nc1ccc(F)cc1)C1(C(=O)Nc2ccc(Oc3ccnc4cc(Cl)ccc34)cc2)CC1 [Example 308, N-{4-[(7-chloroquinolin-4-yl)oxy]phenyl}-N′-(4-fluorophenyl)cyclopropane-1,1-dicarboxamide] | > 7.30 | > 7.30 | 6.30 to 7.30 | 5.30 to 6.30 | 6.30 to 7.30 |
| COc1cc2c(Oc3ncc(NC(=O)C4(C(=O)Nc5ccc(F)cc5)CC4)cc3Cl)ccnc2cc1OCc1ccccc1 [Example 309, N-[5-chloro-6-({6-(methyloxy)-7-[(phenylmethyl)oxy]quinolin-4-yl}oxy)pyridin-3-yl]-N′-(4-fluorophenyl)cyclopropane-1,1-dicarboxamide] | > 7.30 | 5.30 to 6.30 | 5.30 to 6.30 | 6.30 to 7.30 | 5.30 to 6.30 |
| COc1cc2ncnc(Oc3ccc(NC(=O)C4(C(=O)Nc5ccc(F)cc5)CC4)cc3)c2cc1OC [Example 310, N-(4-{[6,7-bis(methyloxy)quinazolin-4-yl]oxy}phenyl)-N′-(4-fluorophenyl)cyclopropane-1,1-dicarboxamide] | > 7.30 | > 7.30 | > 7.30 | > 7.30 | > 7.30 |
| COc1cc2ncnc(Oc3ccc(NC(=O)C4(C(=O)Nc5ccc(F)cc5)CC4)cc3F)c2cc1OC [Example 311, N-(4-{[6,7-bis(methyloxy)quinazolin-4-yl]oxy}-3-fluorophenyl)-N′-(4-fluorophenyl)cyclopropane-1,1-dicarboxamide] | > 7.30 | > 7.30 | > 7.30 | > 7.30 | 6.30 to 7.30 |

Source: patent publication US8476298B2 (Exelixis, Inc., priority 2003, dated 2013)
